Laboratory results from article PMC8994207 (Journal of medicinal chemistry, 2021).
“Also recorded” adds a separate entry of the source. Read-outs that look alike come from different tables or passages of the source. Blank lines part the entries; values can stand above or below the compound they belong to.

Legend:
[1] = cited from earlier work
[2] = tested on: OX1R; settings: read-out: EC50 at OX1R; weak agonist of both OX receptors; cited from earlier work
[3] = tested on: OX2R; settings: read-out: EC50 at OX2R; weak agonist of both OX receptors; cited from earlier work
[4] = tested on: mice; settings: cited from earlier work
[5] = tested on: rats; settings: EEG changes, locomotor activity, startle response latency; cited from earlier work
[6] = biological target: T1, human OX1R (Homo sapiens, UniProt O43613); assay: OX1R calcium mobilization assay; settings: for agonist activity at OX1R (in words): calcium mobilization
T1 sequence (O43613 1-425): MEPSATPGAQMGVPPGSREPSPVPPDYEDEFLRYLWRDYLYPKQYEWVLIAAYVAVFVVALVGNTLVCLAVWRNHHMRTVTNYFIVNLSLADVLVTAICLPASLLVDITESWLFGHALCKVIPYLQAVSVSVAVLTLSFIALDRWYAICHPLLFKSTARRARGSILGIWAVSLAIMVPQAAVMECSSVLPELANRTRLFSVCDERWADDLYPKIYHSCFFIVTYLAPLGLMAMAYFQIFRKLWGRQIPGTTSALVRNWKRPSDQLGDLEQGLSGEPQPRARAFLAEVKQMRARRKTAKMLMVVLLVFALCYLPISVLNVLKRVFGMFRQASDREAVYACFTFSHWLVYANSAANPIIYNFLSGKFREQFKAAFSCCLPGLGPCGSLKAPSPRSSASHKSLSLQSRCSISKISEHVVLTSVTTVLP

[7] = biological target: T2, human OX2R (Homo sapiens, UniProt O43614); assay: OX2R calcium mobilization assay; settings: for agonist activity at OX2R (in words): calcium mobilization
T2 sequence (O43614 1-444): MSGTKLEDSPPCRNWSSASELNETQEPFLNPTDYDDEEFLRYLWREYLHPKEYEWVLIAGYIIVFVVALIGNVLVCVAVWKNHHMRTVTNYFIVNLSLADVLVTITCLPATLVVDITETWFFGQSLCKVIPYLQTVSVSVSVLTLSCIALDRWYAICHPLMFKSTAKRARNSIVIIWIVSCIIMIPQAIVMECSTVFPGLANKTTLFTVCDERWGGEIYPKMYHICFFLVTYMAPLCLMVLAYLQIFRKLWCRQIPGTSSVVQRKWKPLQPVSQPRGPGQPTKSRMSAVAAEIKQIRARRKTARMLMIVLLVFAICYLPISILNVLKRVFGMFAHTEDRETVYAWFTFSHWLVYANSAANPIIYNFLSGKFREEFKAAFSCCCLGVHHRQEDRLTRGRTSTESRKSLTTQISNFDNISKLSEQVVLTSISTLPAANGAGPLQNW

[8] = tested on: 12-month old mice; assay: Sleep modulation study, continuous EEG/EMG recordings; type: in vivo
[9] = i.c.v. 30, 100, 300 nmol, light phase, up to 3 h post injection
[10] = i.p. 40 and 60 mg/kg, 6 h into the light phase, up to 3 h, mice
[11] = 40 mg/kg i.p., 4 h post-injection, vs saline
[12] = 40 mg/kg i.p., lights-on phase, 12-month old mice, 0-4 h post-injection, vs vehicle
[13] = i.p. injection, 12-month old mice

Structure (SMILES): Cc1ccc(Cn2c(=N)n(CC(O)c3ccc(Cl)c(Cl)c3)c3ccccc32)cc1 (stereo not shown) [compound 1]
cytotoxicity [1]: OX receptor independent cytotoxicity | EC50 [2]: > 3.2 µM | EC50 [3]: > 3.2 µM

Structure (SMILES): COc1ccc(-c2cccc(C(=O)N(C)C)c2)cc1S(=O)(=O)Nc1cccc(NCCNC(=O)c2ccccc2N(C)C)c1 [compound 2, 3’-(N-(3-((2-(2-(dimethylamino)benzamido)ethyl)amino)phenyl)sulfamoyl)-4’-methoxy-N,-N-dimethyl-[1,1’-biphenyl]-3-carboxamide]
percent time in NREM sleep [4, 9]: decreased | time in wakefulness [4, 9]: increased | sleep/wake parameters ([4]; i.p. 20 mg/kg): did not have any effect | percent time in NREM sleep ([4]; i.p. 40 mg/kg, mice): reduced | percent time in REM sleep [4, 10]: decreased | percent time in wakefulness [4, 10]: increased | wake time ([4]; i.p. 40 or 60 mg/kg): increased | direct transitions from wakefulness to REM sleep ([4]; i.p. 40 or 60 mg/kg, for 3 hours): decreased | cataplexy-like episodes ([4]; orexin knock-out and orexin neuron-ablated mice): suppressed | wakefulness ([4]; wild-type mice, i.c.v. 30–300 nmol and/or i.p. 40 mg/kg, hydrochloride salt): promoted wakefulness | morphine-induced sedative effects [5]: attenuated

Structure (SMILES): CCCNC(=O)c1cccc(-c2ccc(OC)c(S(=O)(=O)Nc3cccc(NCCNC(=O)c4ccccc4N(C)C)c3)c2)c1 [compound 9, 3’-(N-(3-((2-(2-(dimethylamino)benzamido)ethyl)amino)phenyl)sulfamoyl)-4’-methoxy-N-p-ropyl-[1,1’-biphenyl]-3-carboxamide]
agonist activity at OX1R (in words) [6]: no activity

Structure (SMILES): COc1ccc(/C=C/C(=O)N(C)C)cc1S(=O)(=O)Nc1cccc(NCCNC(=O)c2cccc(C)c2)c1 [compound 31, (E)-N-(2-((3-((5-(3-(dimethylamino)-3-oxoprop-1-en-1-yl)-2-methoxyphenyl)sulfonamido)-phenyl)amino)ethyl)-3-methylbenzamide]
agonist activity at OX2R (in words) [7]: inactive | agonist activity at OX1R (in words) [6]: inactive

Structure (SMILES): COc1ccc(-c2cccc(C(=O)N(C)Cc3ccccc3)c2)cc1S(=O)(=O)Nc1cccc(NCCNC(=O)c2cccc(C)c2)c1 [compound 36, N-Benzyl-4’-methoxy-N-methyl-3’-(N-(3-((2-(3-methylbenzamido)ethyl)amino)phenyl)sulfa-moyl)-[1,1’-biphenyl]-3-carboxamide]
agonist activity at OX1R (in words) [6]: no activity

Structure (SMILES): COc1ccc(-c2cccc(C(=O)NCc3ccccn3)c2)cc1S(=O)(=O)Nc1cccc(NCCNC(=O)c2cccc(C)c2)c1 [compound 38, 4’-Methoxy-3’-(N-(3-((2-(3-methylbenzamido)ethyl)amino)phenyl)sulfamoyl)-N-(pyridin-2-ylmethyl)-[1,1’-biphenyl]-3-carboxamide]
agonist activity at OX1R (in words) [6]: complete loss of the OX1R potency

Further lines, with some results ahead:

agonist activity at OX1R (in words) [6]: no activity
Structure (SMILES): COc1ccc(-c2cccc(CN(C)C)c2)cc1S(=O)(=O)Nc1cccc(NCCNC(=O)c2ccccc2N(C)C)c1 [compound 10, 2-(Dimethylamino)-N-(2-((3-((3’-((dimethylamino)methyl)-4-methoxy-[1,1’-biphenyl])-3-sulfonamido)phenyl)amino)ethyl)benzamide]

agonist activity at OX2R (in words) [7]: all activities were lost | agonist activity at OX1R (in words) [6]: all activities were lost
Structure (SMILES): COc1ccc(-c2cccc(C(=O)N(C)C)c2)cc1S(=O)(=O)Nc1cccc(N2CCN(C(=O)c3ccccc3N(C)C)CC2)c1 [compound 22, 3’-(N-(3-(4-(2-(dimethylamino)benzoyl)piperazin-1-yl)phenyl)sulfamoyl)-4’-methoxy-N,N-dimethyl-[1,1’-biphenyl]-3-carboxamide]

agonist activity at OX2R (in words) [7]: all activities were lost | agonist activity at OX1R (in words) [6]: all activities were lost
Structure (SMILES): COc1ccc(-c2cccc(C(=O)N(C)C)c2)cc1S(=O)(=O)Nc1cccc(N2CCN(C(=O)c3cccc(C)c3)CC2)c1 [compound 23, 4’-Methoxy-N,N-dimethyl-3’-(N-(3-(4-(3-methylbenzoyl)piperazin-1-yl)phenyl)sulfamoyl)-[1,1’-biphenyl]-3-carboxamide]

agonist activity at OX1R (in words) [6]: full agonist
Structure (SMILES): COc1ccc(-c2cccc(C(=O)N(C)C)n2)cc1S(=O)(=O)Nc1cccc(NCCNC(=O)c2cccc(C)c2)c1 [compound 27, 6-(4-methoxy-3-(N-(3-((2-(3-methylbenzamido)ethyl)amino)phenyl)sulfamoyl)phenyl)-N,N-dimethylpicolinamide]

agonist activity at OX2R (in words) [7]: inactive | agonist activity at OX1R (in words) [6]: inactive
Structure (SMILES): COc1ccc(CCC(=O)N(C)C)cc1S(=O)(=O)Nc1cccc(NCCNC(=O)c2cccc(C)c2)c1 [compound 32, N-(2-((3-((5-(3-(dimethylamino)-3-oxopropyl)-2-methoxyphenyl)sulfonamido)phenyl)amin-o)ethyl)-3-methylbenzamide]

agonist activity at OX1R (in words) [6]: complete loss of potency
Structure (SMILES): COc1ccc(-c2cccc(C(=O)NCCN(C)C)c2)cc1S(=O)(=O)Nc1cccc(NCCNC(=O)c2cccc(C)c2)c1 [compound 34, N-(2-(dimethylamino)ethyl)-4’-methoxy-3’-(N-(3-((2-(3-methylbenzamido)ethyl)amino)phenyl)sulfamoyl)-[1,1’-biphenyl]-3-carboxamide]

agonist activity at OX2R (in words) [7]: full agonist | Emax ([7]; read-out: Emax at OX2R): ~100% | agonist activity at OX1R (in words) [6]: full agonist | Emax ([6]; read-out: Emax at OX1R): ~100%
Structure (SMILES): COc1ccc(-c2cccc(C(=O)N(C)Cc3ccncc3)c2)cc1S(=O)(=O)Nc1cccc(NCCNC(=O)c2cccc(C)c2)c1 [compound 40, 4’-Methoxy-N-methyl-3’-(N-(3-((2-(3-methylbenzamido)ethyl)amino)phenyl)sulfamoyl)-N-(pyridin-4-ylmethyl)-[1,1’-biphenyl]-3-carboxamide]
duration of NREM sleep episodes [8, 11]: increased | duration of REM sleep episodes [8, 11]: did not affect; also recorded: without effecting | duration of wake episodes [8, 11]: increased | number of NREM sleep episodes [8, 11]: Reduced | number of REM sleep episodes [8, 11]: fewer episodes; also recorded: reduced | number of state transitions [8, 11]: reduced | number of wake episodes [8, 11]: reduced | time spent in NREM sleep [8, 12]: reduced; also recorded: decreased | time spent in REM sleep [8, 12]: reduced; also recorded: decreased | time spent in wakefulness ([8]; 40 mg/kg i.p., quiet lights-on phase, 12-month old mice, 0-4 h post-injection, vs vehicle): significantly increased | sleep/wake consolidation [8, 13]: increased; also recorded: improved | time asleep [8, 13]: decreased

agonist activity at OX1R (in words) [6]: total loss of activity
Structure (SMILES): COc1ccc(-c2cccc(C(=O)N(C)C)c2)cc1C(=O)Nc1cccc(NCCNC(=O)c2cccc(C)c2)c1 [compound 43, 4-Methoxy-N^3’,N^3’-dimethyl-N^3-(3-((2-(3-methylbenzamido)ethyl)amino)phenyl)-[1,1’-biph-enyl]-3,3’-dicarboxamide]

agonist activity at OX1R (in words) [6]: total loss of activity
Structure (SMILES): COc1ccc(-c2cccc(C(=O)N(C)Cc3ccncc3)c2)cc1C(=O)Nc1cccc(NCCNC(=O)c2cccc(C)c2)c1 [compound 44, 4-Methoxy-N^3’-methyl-N^3-(3-((2-(3-methylbenzamido)ethyl)amino)phenyl)-N^3’-(pyridin-4-ylmethyl)-[1,1’-biphenyl]-3,3’-dicarboxamide]
